What was measured:
[1] = fructose-loaded rats, oral once a day for 21 days, pitavastatin 10 mg/kg, amlodipine 15 mg/kg; for plasma insulin level compared with the control group (FIG. 2): Dunnett's test, combination p<0.05
[2] = fructose-loaded rats, oral once a day for 21 days, pitavastatin 10 mg/kg, amlodipine 15 mg/kg; for plasma triglyceride level compared with the control group (FIG. 1): Dunnett's test, combination p<0.01
[3] = blood 22 hours after final administration

| Structure (SMILES) | plasma insulin level compared with the control group (FIG. 2) [1] | plasma triglyceride level compared with the control group (FIG. 1) [2] | relative plasma insulin level (based on the control group) [1, 3] | relative plasma triglyceride level (based on the control group) [2, 3] |
| --- | --- | --- | --- | --- |
| CCOC(=O)C1=C(COCCN)NC(C)=C(C(=O)OC)C1c1ccccc1Cl (stereo not drawn) [amlodipine, amlodipine besylate] | not significantly changed as compared with the control group | almost equivalent to those of the control group | – | – |
| O=C([O-])C[C@H](O)C[C@H](O)/C=C/c1c(C2CC2)nc2ccccc2c1-c1ccc(F)cc1.O=C([O-])C[C@H](O)C[C@H](O)/C=C/c1c(C2CC2)nc2ccccc2c1-c1ccc(F)cc1.[Ca+2] [pitavastatin, Pitavastatin calcium] | not significantly changed as compared with the control group | almost equivalent to those of the control group | 0.971 | 0.966 |

Reference: US8604054B2, “Triglyceride-lowering agent and hyperinsulinism-ameliorating agent” (Kowa Co., Ltd., priority 2006, dated 2013)
